# Reference: patent publication US11286268B1, “EIF4E-inhibiting compounds and methods” (EFFECTOR THERAPEUTICS, INC., priority 2019, dated 2022)
# Read-outs that look alike come from different tables or passages of the source.
# Biological target: recombinant eIF4E (Homo sapiens (Human), UniProt P06730)
# Assay: Fluorescence polarization competition assay for eIF4E binding potency
# Experimental: Compounds were screened for eIF4E binding potency using a fluorescence polarization competition assay. All binding reactions were performed in fluorescence polarization buffer (FPB) containing 20 mM Tris pH 7.5, 100 mM NaCl, 1 mM DTT, and 0.02% Tween-20. Final binding reactions contained 75 nM recombinant eIF4E (Beryllium, custom order), 20 nM EDA-m^7GDP-ATTO-550 (Jena Bioscience, NU-827-550) and varying concentrations of the inhibitory compound of interest. Final DMSO concentration in each reaction was 1%.
# eIF4E protein was pre-incubated with EDA-m^7GDP-ATTO-550 in FPB at 2× concentrations for 5 minutes prior to the addition of compounds. Compounds (100×) were prepared using 3-fold serial dilutions in 100% DMSO, and subsequently diluted 1:50 in FPB to produce 2× stocks. 50 μl of 2× eIF4E/EDA-m^7GDP-ATTO-550 were transferred to the wells of a 96-well half-area black flat bottom polystyrene plate. 50 μl of 2× test compound were added, and binding reactions were allowed to equilibrate for 30 minutes at room temperature while protected from light. The fluorescent polarization signal was detected using a Victor 2 multi-label counter (Perkin Elmer) and the concentration necessary to achieve inhibition of eIF4E/EDA-m^7GDP-ATTO-550 binding by 50% (IC50) was calculated using data from an 8-point compound dilution series.
# In Table 4A, IC50 values of less than 0.05 μM are labelled as “+++”, from 1 to 0.05 μM are labelled as “++”, and greater than 1 μM are labelled as “+”. ND=not determined.
# [1] = fluorescence polarization competition, 75 nM recombinant eIF4E, 20 nM EDA-m7GDP-ATTO-550, IC50 class, read-out: elF4E FP
# [2] = inhibition of eIF4E/EDA-m7GDP-ATTO-550 binding, calculated IC50 values, Table 4B, read-out: IC50
# [3] = inhibition of eIF4E/EDA-m7GDP-ATTO-550 binding by 50%, Table 4B calculated values, read-out: IC50
# Chain of recombinant eIF4E (P06730 whole entry): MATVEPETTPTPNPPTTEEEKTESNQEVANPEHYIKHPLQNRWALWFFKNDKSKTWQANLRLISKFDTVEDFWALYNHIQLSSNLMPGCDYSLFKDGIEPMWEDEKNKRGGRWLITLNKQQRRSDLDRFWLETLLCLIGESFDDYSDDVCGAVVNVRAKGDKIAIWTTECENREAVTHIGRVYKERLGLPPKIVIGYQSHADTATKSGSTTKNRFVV
Compound,IC50 [1],IC50 [2],IC50 [3]
Cc1cc(-c2cc(Cl)ccc2OCCn2c(C)nc3cc(S(C)(=O)=O)c(N4CCN(C)CC4)cc3c2=O)c2scc(C(=O)O)c2n1 [compound 1209],50 to 1000 nM,98 nM,
Cc1cc(-c2nc(C)c3nc(C)n(CCOc4ccc(Cl)cc4-c4cc(C)nc5c(C(=O)O)csc45)c(=O)c3c2C#N)ccn1 [compound 911],< 50 nM,,17.1 nM
Cc1nc2cc(C(F)(F)Cl)cc(C#N)c2c(=O)n1CCOc1ccc(Cl)cc1-c1ccnc2c(C(=O)O)csc12 [compound 264],< 50 nM,,24.6 nM
Cc1cc(-c2cc(Cl)ccc2OCCn2c(C)nc3cc(Cl)c(N4CC5(CCC5)C4)c(C#N)c3c2=O)c2scc(C(=O)O)c2n1 [compound 1950],,41.7 nM,
Cc1cc(-c2cc(Cl)ccc2OCCn2c(C)nc3cc(C(F)(F)F)c(-c4ccncc4)nc3c2=O)c2scc(C(=O)O)c2n1 [compound 464],< 50 nM,,21.4 nM
Cc1nc2cc(C(F)(F)F)cc(C#N)c2c(=O)n1CCOc1ccc(Cl)cc1-c1cc(=O)n(C)c2c(C(=O)O)csc12 [compound 332],< 50 nM,,37.7 nM
Cc1nc2cnc(N(C)C3CCN([C@H]4C[C@@H](OC(F)(F)F)C4)CC3)c(C#N)c2c(=O)n1CC#Cc1ccc(Cl)cc1-c1ccnc2c(C(=O)NS(=O)(=O)c3cccnc3)csc12 [compound 1774],,45 nM,
Cc1nc2cnc(N3CCN(CC(C)(F)CF)CC3)c(C#N)c2c(=O)n1CCOc1ccc(Cl)cc1-c1ccnc2c(C(=O)O)csc12 (stereo not drawn) [compound 1164],< 50 nM,,26.7 nM
CCN(c1ncc2nc(C)n(CC#Cc3ccc(Cl)cc3-c3ccnc4c(C(=O)O)csc34)c(=O)c2c1C#N)C1CCN(C2COC2)CC1 [compound 1186],< 50 nM,,20.1 nM
Cc1nc2cnc(N(C)C3CCN(C4CC(F)(F)C4)CC3)c(C#N)c2c(=O)n1CC#Cc1ccc(Cl)cc1-c1ccnc2c(C(=O)NS(=O)(=O)CC(F)F)csc12 [compound 1819],,4.4 nM,
Cc1nc2cnc(N(C)[C@H]3CC[C@H](N(C)CCF)CC3)c(C#N)c2c(=O)n1CC#Cc1ccc(Cl)cc1-c1ccnc2c(C(=O)O)csc12 [compound 1229],< 50 nM,10.7 nM,
Cc1nc(N(C)C2CCN(CC(C)(F)F)CC2)c(C#N)c2c(=O)n(CCOc3ccc(Cl)cc3-c3ccnc4c(C(=O)O)csc34)c(C)nc12 [compound 1562],,16.8 nM,
CC#Cc1c(C(=O)O)cccc1-c1cc(Cl)ccc1OCCn1cnc2cnc(C#N)cc2c1=O [compound 24],50 to 1000 nM,,184 nM
Cc1cc(-c2cc(Cl)ccc2OCCn2c(C)nc3c(F)cc(C(F)F)c(C#N)c3c2=O)c2cccc(C(=O)O)c2n1 [compound 490],50 to 1000 nM,,
Cc1nc2cnc(C3CC3)c(C#N)c2c(=O)n1CCOc1ccc(Cl)cc1-c1cc(CF)nc2c(C(=O)O)csc12 [compound 917],< 50 nM,,11 nM
Cc1cc(-c2cc(Cl)ccc2OCCn2c(C)nc3cc(Cl)c(-c4cc(F)cnc4C)c(C#N)c3c2=O)c2scc(C(=O)O)c2n1 [compound 392],< 50 nM,,25.1 nM
Cc1nc2cnc(N(C)C3CCN(CCOC(F)F)CC3)c(C#N)c2c(=O)n1CCOc1ccc(Cl)cc1-c1ccnc2c(C(=O)O)csc12 [compound 1513],,13.4 nM,
Cc1nc2cnc(N3CCN(CCC(F)(F)F)CC3)c(C#N)c2c(=O)n1CC#Cc1ccc(Cl)cc1-c1ccnc2c(C(=O)O)csc12 [compound 1160],< 50 nM,,17.2 nM
Cc1nc2cc(C(F)(F)F)cc(C#N)c2c(=O)n1C/C=C/c1ccc(Cl)cc1-c1cccc(C(=O)O)c1 [compound 145],50 to 1000 nM,,95.9 nM
Cc1nc2cc(C(F)(F)F)cc(C#N)c2c(=O)n1CCOc1ccc(Cl)cc1-c1ccnc2c(C(=O)O)cn(C)c12 [compound 320],< 50 nM,,43.5 nM
Cc1ccc(-c2c(C(F)(F)F)cc3nc(C)n(CCOc4ccc(Cl)cc4-c4cc(C)nc5c(C(=O)O)csc45)c(=O)c3c2C#N)nn1 [compound 967],< 50 nM,,12.2 nM
Cc1cc(-c2cc(Cl)ccc2OCCn2c(C)nc3cc(Cl)c(-c4cccc(C(F)F)n4)c(C#N)c3c2=O)c2scc(C(=O)O)c2n1 [compound 758],< 50 nM,,13.1 nM
Cc1cc(-c2cc(Cl)ccc2C#CCn2c(C)nc3cnc(C#N)cc3c2=O)c2scc(C(=O)O)c2n1 [compound 599],50 to 1000 nM,,61.6 nM
Cc1cc(-c2cc(Cl)ccc2OCCn2c(C)nc3cc(C(F)(F)F)c(N(C)C)c(C#N)c3c2=O)c2scc(C(=O)O)c2n1 [compound 1619],,31.6 nM,

Compound,IC50 [1],IC50 [2],IC50 [3]
Cc1nc2cc(CN(C)C)c(OC(F)F)c(C#N)c2c(=O)n1CCOc1ccc(Cl)cc1-c1ccnc2c(C(=O)O)csc12 [compound 458],< 50 nM,,36.8 nM
CCc1cc(-c2cc(Cl)ccc2OCCn2c(C)nc3cc(C(F)(F)F)c(N4CC5(C4)CN(C4CC4)C5)c(C#N)c3c2=O)c2scc(C(=O)O)c2n1 [compound 1931],,19.7 nM,
C=S(C)(=O)c1cc(C#N)c2c(=O)n(CCOc3ccc(Cl)cc3-c3ccnc4c(C(=O)O)csc34)c(C)c(F)c2c1 (stereo not drawn) [compound 274],< 50 nM,,18.8 nM
Cc1nc2cc(F)c(F)c(C#N)c2c(=O)n1CCOc1cc(F)c(Cl)cc1-c1ccnc2c(C(=O)O)csc12 [compound 506],50 to 1000 nM,,68.9 nM
Cc1nc2cnc(CN)cc2c(=O)n1CCOc1ccc(Cl)cc1-c1cccc(C(=O)O)c1 [compound 1998],,409 nM,
Cc1nc2cc(C(F)(F)F)c(CN3CCCCC3)c(C#N)c2c(=O)n1CCOc1ccc(Cl)cc1-c1ccnc2c(C(=O)O)csc12 [compound 528],< 50 nM,,27.1 nM
Cc1cc(-c2cc(Cl)ccc2OCCn2c(C)nc3cnc(C)c(C#N)c3c2=O)c2scc(C(=O)O)c2n1 [compound 419],< 50 nM,,
Cc1cc(-c2cc(Cl)ccc2OCCn2c(C)nc3cc4c(c(C#N)c3c2=O)C(N(C)C)CC4)c2scc(C(=O)O)c2n1 (stereo not drawn) [compound 612],< 50 nM,,43.8 nM
COCCN1CCN(c2c(C(F)(F)F)cc3nc(C)n(CCOc4ccc(Cl)cc4-c4ccnc5c(C(=O)O)csc45)c(=O)c3c2C#N)CC1 [compound 1243],< 50 nM,5.55 nM,
Cc1nc2cnc(N(C)C3CCN(CC(F)(F)F)CC3)c(C#N)c2c(=O)n1CC#Cc1ccc(Cl)cc1-c1ccnc2c(C(=O)NS(=O)(=O)C3CC3)csc12 [compound 1547],,15.2 nM,
Cc1cc(-c2cc(Cl)ccc2OCCn2c(C)nc3ccc(CN4CCN(C)CC4)c(C#N)c3c2=O)c2scc(C(=O)O)c2n1 [compound 647],< 50 nM,,19.8 nM
Cc1nc2cnc(N(C)C3CCN(CC(F)(F)F)CC3)c(C#N)c2c(=O)n1CC#Cc1ccc(Cl)cc1-c1ccnc2c(C(=O)NS(=O)(=O)c3ccccc3)csc12 [compound 1548],,36.2 nM,
N#Cc1ccc2ncn(CCOc3ccc(Cl)cc3-c3cccc(C(=O)O)c3)c(=O)c2c1 [compound 74],50 to 1000 nM,,423 nM
C#Cc1sc2c(-c3cc(Cl)ccc3OCCn3c(C)nc4cc(C(F)(F)F)cc(C#N)c4c3=O)ccnc2c1C(=O)O [compound 267],50 to 1000 nM,,74.1 nM
Cc1nc2cnc(N3CCN(CC(F)F)C4CC43)c(C#N)c2c(=O)n1CCOc1ccc(Cl)cc1-c1ccnc2c(C(=O)O)csc12 (stereo not drawn) [compound 824],< 50 nM,,13.6 nM
CCc1cc(-c2cc(Cl)ccc2OCCn2c(C)nc3cc(C(F)(F)F)c(-c4ccncc4)c(C#N)c3c2=O)c2scc(C(=O)O)c2n1 [compound 1012],< 50 nM,,8.94 nM
C=C(c1ncc2nc(C)n(CCOc3ccc(Cl)cc3-c3cc(C)nc4c(C(=O)O)csc34)c(=O)c2c1C#N)C(F)(F)F [compound 989],< 50 nM,,19.8 nM
Cc1nc2cnc(N(C)C3CC4(C3)CN(CC(F)(F)F)C4)c(C#N)c2c(=O)n1CC#Cc1ccc(Cl)cc1-c1ccnc2c(C(=O)O)csc12 [compound 827],< 50 nM,,5.72 nM
Cc1nc2ccc(OC(F)(F)F)c(C#N)c2c(=O)n1CCOc1ccc(Cl)cc1-c1ccnc2c(C(=O)O)csc12 [compound 406],< 50 nM,,11.4 nM
Cc1cc(-c2cc(Cl)ccc2OCCn2c(C)nc3cnc(C(C)(F)F)c(C#N)c3c2=O)c2scc(C(=O)O)c2n1 [compound 913],< 50 nM,,16.2 nM
Cc1cc(-c2ncc3nc(C)n(CCOc4ccc(Cl)cc4-c4ccc(C)c5c(C(=O)O)csc45)c(=O)c3c2C#N)ccn1 [compound 763],< 50 nM,,5.19 nM
COCc1cc(F)c2cc(C)n(CCOc3ccc(Cl)cc3-c3ccnc4c(C(=O)O)csc34)c(=O)c2c1C#N [compound 533],50 to 1000 nM,,62.7 nM
Cc1nc2cnc(N3CCCC4(CCN4CC(F)F)C3)c(C#N)c2c(=O)n1CCOc1ccc(Cl)cc1-c1ccnc2c(C(=O)O)csc12 (stereo not drawn) [compound 1649],,18.3 nM,
